Values of other authors in US20200390743A1, “Methods and Compositions For Improving Outcomes of Cancer Patients” (Reven IP HoldCo LLC, priority 2019, published 2020).

Legend:
[1] = 241 osteoporotic women
[2] = rats, 100 mg/kg body weight daily

Which fracture incidence ([1]; 45 mg/day vitamin K2 and 150 mg elemental calcium, two years, 30% in control group) does the source give for `CC(C)=CCC/C(C)=C/CC/C(C)=C/CC/C(C)=C/CC1=C(C)C(=O)c2ccccc2C1=O` [Vitamin K2] here?
Its fracture incidence is 10%.

What about the “lumbar bone mineral density” value ([1]; 45 mg/day, after two years) of the same compound?
Its value is “maintain”.

What about the “calcium in kidneys and aorta induced by megadose of synthetic vitamin D” value [2] of the same compound?
Its value is “inhibited the increase in calcium”.

And the “total cholesterol levels, lipid peroxidation, ester cholesterol deposition in the aorta and factor X activity in plasma” value (compared to the control group)?
The value was “reduce”.

What about the “atherosclerotic plaque progression in the aorta and pulmonary arteries” value (rabbits, 1-10 mg/kg daily for 10 weeks) of the same compound?
The value was “inhibited the atherosclerotic plaque progression”.
